Measured values: US8936807B2, “Use of the cathelicidin LL-37 and derivatives thereof for wound healing” (Lipopeptide AB, priority 2003, dated 2015)

Test system: HaCat cells
Assay: Proliferation of HaCat cells assessed by flowcytometry and Trypan-Blue
Format: cell-based, human
Conditions: for Increased Proliferation (%): vs baseline
Description: HaCat cells were used for these experiments. HaCat cells are an immortalized human keratinocyte cell line (Boukamp et al., J Cell Biol 106:761-771, 1988), which is suitable for experimental keratinocyte research. HaCat cells were cultured in medium (DMEM, +10% FCS and PEST). Both types of cell cultures were treated with synthetic, bioactive LL-37 (lot YS 5253). […] Cells were harvested at different time-points (24 h, 48 h, 72 h and 96 h) and counted by flowcytometry (Becton-Dickinson) and stained by Trypan-Blue to evaluate viability. […] Proliferation and viability were also ascertained by measuring mitochondrial activity (WST-1, Roche, Cook et al. Anal Biochem 179:1-7, 1989).

[1] = LL-37 25 μg/ml, 10% serum, 96 h
[2] = LL-37 50 μg/ml, 10% serum, 96 h
[3] = LL-37 100 μg/ml, 2% serum, 96 h
[4] = LL-37 100 μg/ml, 10% serum, 96 h
[5] = LL-37 100 μg/ml, no lipid, 2% serum, 72 h
[6] = LL-37 100 μg/ml, no lipid, 10% serum, 72 h
[7] = LL-37 100 μg/ml, with lipid 0.2%, 2% serum, 72 h
[8] = LL-37 100 μg/ml, with lipid 0.2%, 10% serum, 72 h

For “LLGDFFRKSKEKIGKEFKRIVQRIKDFLRNLVPRTES [LL-37]”, the “Number of Cells (Mean)” value (LL-37 25 μg/ml, 2% serum, 96 h) was 32130, the “Trypan Blue + (%)” value (LL-37 25 μg/ml, 2% serum, 96 h) was under 1% and the “Increased Proliferation (%)” value (LL-37 25 μg/ml, 2% serum, 96 h) was 0%. For the same sequence, the “Number of Cells (Mean)” value [1] was 36470, the “Trypan Blue + (%)” value [1] was under 1% and the “Increased Proliferation (%)” value [1] was 13%. For the same sequence, the “Number of Cells (Mean)” value (LL-37 50 μg/ml, 2% serum, 96 h) was 53620, the “Trypan Blue + (%)” value (LL-37 50 μg/ml, 2% serum, 96 h) was 30-50% and the “Increased Proliferation (%)” value (LL-37 50 μg/ml, 2% serum, 96 h) was “Cytotoxic effect”. For the same sequence, the “Number of Cells (Mean)” value [2] was 40950, the “Trypan Blue + (%)” value [2] was under 1% and the “Increased Proliferation (%)” value [2] was 27%. For the same sequence, the “Number of Cells (Mean)” value [3] was 15120, the “Trypan Blue + (%)” value [3] was 100% and the “Increased Proliferation (%)” value [3] was “Cytotoxic effect”. The “cytotoxic effect when lipid was added (in words)” value (LL-37 100 μg/ml, 2% serum, lipid added) was “completely abolished”, the “Number of Cells (Mean)” value [4] was 66430 and the “Trypan Blue + (%)” value [4] was under 1%. The “Increased Proliferation (%)” value [4] was 100%, the “Trypan Blue staining (in words)” value (LL-37 100 μg/ml, medium containing 2% FCS) was “all of the keratinocytes became positive with Trypan Blue staining” and the “Number of Cells (Mean)” value [5] was 150500. The “Trypan Blue + (%)” value [5] was 100%, the “Increased Proliferation (%)” value [5] was “Cytotoxic effect” and the “Number of Cells (Mean)” value [6] was 88853. The “Trypan Blue + (%)” value [6] was under 1%, the “Increased Proliferation (%)” value [6] was 61% and the “Number of Cells (Mean)” value [7] was 87360. For the same sequence, the “Trypan Blue + (%)” value [7] was under 1%, the “Increased Proliferation (%)” value [7] was 58% and the “Number of Cells (Mean)” value [8] was 91980. The “Trypan Blue + (%)” value [8] was under 1%, the “Increased Proliferation (%)” value [8] was 66% and the “proliferation of HaCat cells (in words)” value (LL-37 25-100 μg/ml, media with 10% FCS) was “increases proliferation in a concentration-dependent manner”.
